From paper PMC4501006, “Preliminary Characterization and In Vivo Studies of Structurally Identical ^18F- and ^125I-Labeled Benzyloxybenzenes for PET/SPECT Imaging of β-Amyloid Plaques” (Scientific Reports, 2015)

How the values were obtained:
[1] = Dynamic microPET/CT imaging in normal ICR mice; assay type: in vivo; conditions: for brain radioactivity retention from PET time-activity curve: at 60 min; for muscle and bone uptake, standardized uptake value (SUV): entire 60 min PET scan
Experimental: To further assess the pharmacokinetics of these two couple of radiolabeled benzyloxybenzenes, following dynamic PET/CT and SPECT/CT scans were conducted in normal ICR mice. High contrast PET and SPECT images implied that all the four radiolabeled benzyloxybenzenes can penetrate the BBB to a great degree and washout from the normal brain regions (Fig. 7a). […] Sustained low muscle and bone uptakes were observed during the entire 60 min scans with standardized uptake values (SUV) of approximate 0.7. […] These PET imaging data well matched the in vivo biodistribution results.
Four normal ICR mice (20–22 g, male) were used for dynamic microPET/CT and microSPECT/CT imaging. The whole-body PET/CT scans were performed using Siemens Inveon device (Siemens Medical Solutions), while SPECT/CT scans were conducted with Mediso nanoScan SPECT/CT scanner (Mediso Medical Imaging System). All mice were anesthetized with 2% isoflurane. Dynamic PET and SPECT scans from 0 to 60 min were started immediately after intravenous injection of [^18F]7a (injected dose, 2.2 MBq), [^18F]12a (injected dose, 4.1 MBq), [^125I]7a (injected dose, 25 MBq), and [^125I]12a (injected dose, 48 MBq), respectively. PET images were reconstructed using three-dimensional ordered subsets expectation maximization (3D OSEM) algorithm, and 3D iterative algorithm was used for SPECT image reconstruction. Time frames for PET imaging were 20 × 60 s and 10 × 240 s, and that for SPECT imaging were 20 × 180 s. Regions of interests (ROIs) were manually drawn on the whole brain, heart, liver, muscle and bone using the CT templates and then transferred to corresponding coregistered PET images. SUVs, injected dose and body weight normalized and decay corrected radioactivity concentration, were calculated for all ROIs. TACs were calculated from this.

Aβ plaques = Aβ plaques (Homo sapiens, UniProt P05067); experiment: Ex vivo autoradiography and brain radioactivity retention, Tg versus wild-type mouse; assay type: in vivo, Tg mouse (APPswe/PSEN1); conditions: 30 min post-injection
Chain of Aβ plaques (P05067 672-711 limits assumed): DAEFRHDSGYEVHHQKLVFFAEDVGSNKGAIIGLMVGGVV
Experimental: To further characterize the in vivo Aβ imaging capabilities, we conducted ex vivo autoradiographic studies with [^125I]7a which combined high binding affinity, high initial brain uptake, fast clearance and excellent in vivo biostability in the brain. [^125I]7a (1 mCi, 200 μL) was injected intravenously into a Tg mouse (APPswe/PSEN1, male, 27 months old) and an age-matched wild-type mouse (C57BL6, male). Thirty minutes after injection, the brains were removed, weighed and the radioactivity was counted. Then the brains were frozen and sectioned for ex vivo autoradiography. […] Ex vivo autoradiography was performed on a transgenic mouse (APPswe/PSEN1, male, 27 months old) and a wild-type mouse (C57BL6, male, 27 months old). A saline solution (200 μL, 10% EtOH) of 1 mCi of [^125I]7a was injected into the mice via the tail vein. The mice were sacrificed by decapitation at 30 min post-injection, and the brains were immediately removed, weighed and the radioactivity was counted. Frozen brain sections of 20 μm were cut and exposed to a phosphorus plate (Perkin-Elmer, USA) for one week. Ex vivo autoradiographic images were obtained using a phosphor imaging system (Cyclone, Packard). Subsequently the same sections were stained with ThS to confirm the presence and location of Aβ plaques.

Row | Compound | brain uptake from PET time-activity curve ([1]; at 8 min) | brain radioactivity retention from PET time-activity curve [1] | muscle and bone uptake, standardized uptake value (SUV) [1] | brain uptake from PET time-activity curve ([1]; at 7 min) | higher brain radioactivity retention in Tg mouse than in wild-type control mouse (Aβ plaques; i.v., 1 mCi) | ex vivo autoradiography, labeling of Aβ plaques (Aβ plaques; Tg mouse brain sections)
1 | [18F]CCOc1ccc(OCc2ccc(I)cc2)cc1 [[^18F]7a] | 5.96 % ID/g | 3.08 % ID/g | ~0.7 |  |  | 
2 | [18F]CCOc1ccc(COc2ccc(I)cc2)cc1 [[^18F]12a] |  | 3.47 % ID/g | ~0.7 | 6.74 % ID/g |  | 
3 | FCCOc1ccc(OCc2ccc([125I])cc2)cc1 [[^125I]7a] |  |  |  |  | 40% | clear labeling of Aβ plaques in the Tg mouse brain
